Measured values: EP0581652A1, “Pradimicins T1 and T2 and 11-0-dexylosylpradimicin T1, new members of the pradimicin family of antibiotics” (priority 1992, dated 1994)

Tests used:
[1] = tested on: Aspergillus fumigatus IAM 2034; assay: In vitro antifungal activity, agar dilution method (MIC); assay type: cell-based; conditions: yeast morphology agar + 1/15M phosphate buffer (pH 7.0), 10^6 cells/ml, 28°C, 40 hrs
[2] = Acute toxicity in mice after a single intravenous dose; assay type: in vivo
Procedure: (§1) Pradimicins T1 and T2 were evaluated for in vivo efficacy against a Candida albicans A9540 systemic infection in male ICR mice (20-24 g body weight) as described by Oki etal. in water-soluble pradimicin derivatives, synthesis and antifungal evaluation of N,N,-dimethyl pradimicins, J. Antibiotics 43: 1230-1235, 1990. Five mice at each dose level were challenged intravenously with ten times the 50% lethal dose of the pathogen suspended in saline. Antibiotics were intravenously administered once immediately after the fungal challenge. Infection control animals (n=10) died from 7 to 12 days. The 50% protective dose (PD50) was calculated from the survival rate 20 days after the fungal infection. The acute toxicity of pradimicins T1 and T2 was determined in mice after a single intravenous dose.

Candida albicans A9540 [3] = assay: In vitro antifungal activity, agar dilution method (MIC); assay type: cell-based; conditions: yeast morphology agar + 1/15M phosphate buffer (pH 7.0), 10^6 cells/ml, 28°C, 40 hrs
[4] = tested on: Cryptococcus neoformans D49; assay: as above; assay type: cell-based; conditions: yeast morphology agar + 1/15M phosphate buffer (pH 7.0), 10^6 cells/ml, 28°C, 40 hrs
[5] = tested on: Cryptococcus neoformans IAM 4514; assay: as above; assay type: cell-based; conditions: yeast morphology agar + 1/15M phosphate buffer (pH 7.0), 10^6 cells/ml, 28°C, 40 hrs
[6] = tested on: Trichophyton mentagrophytes 4329; assay: as above; assay type: cell-based; conditions: yeast morphology agar + 1/15M phosphate buffer (pH 7.0), 10^7 cells/ml, 28°C, 60 hrs
[7] = tested on: Candida albicans 83-2-14 (Juntendo); assay: as above; assay type: cell-based; conditions: yeast morphology agar + 1/15M phosphate buffer (pH 7.0), 10^6 cells/ml, 28°C, 40 hrs
[8] = tested on: Saccharomyces cerevisiae ATCC 9763; assay: as above; assay type: cell-based; conditions: yeast morphology agar + 1/15M phosphate buffer (pH 7.0), 10^6 cells/ml, 28°C, 40 hrs
[9] = tested on: Candida albicans ATCC 32354 (B311); assay: as above; assay type: cell-based; conditions: yeast morphology agar + 1/15M phosphate buffer (pH 7.0), 10^6 cells/ml, 28°C, 40 hrs
Candida albicans A9540 [10] = assay: In vivo efficacy against systemic infection in mice; conditions: male ICR mice; C. albicans A9540 systemic infection; single intravenous dose immediately after challenge; survival rate 20 days after infection
Procedure: as §1

Substance | MIC [1] | LD50 [2] | MIC (Candida albicans A9540 [3]) | MIC [4] | MIC [5] | MIC [6] | MIC [7] | MIC [8] | MIC [9] | PD50 (Candida albicans A9540 [10])
Amphotericin B | 0.8 μ g/ml | 4.5 mg/kg | 0.4 µg/mL | 0.4 µg/mL | 0.4 µg/mL | 0.8 μ g/ml | 0.4 µg/mL | 0.4 µg/mL | 0.4 µg/mL | 0.2 mg/kg
Pradimicin T2 | >100 μ g/ml | – | – | – | – | 50 μ g/ml | – | – | – | –
Pradimicin T1 | 6.3 μ g/ml | – | – | – | – | 6.3 μ g/ml | – | – | – | –
11-O-dexylosylpradimicin T1 [11-O-Dexylosyl-pradimicin T1] | 25 μ g/ml | – | – | – | – | 12.5 μ g/ml | – | – | – | –
